This is an account of results in US11046682B2, “Fused heterocyclic derivatives, their preparation methods thereof and medical uses thereof” (Beijing Innocare Pharma Tech Co., Ltd., priority 2016, dated 2021).

pIC50: −log10 of the molar value. Where only a bound is given, the exact number is not on record here.

full-length human recombinant IDO1 protein, sequence (P14902 whole entry): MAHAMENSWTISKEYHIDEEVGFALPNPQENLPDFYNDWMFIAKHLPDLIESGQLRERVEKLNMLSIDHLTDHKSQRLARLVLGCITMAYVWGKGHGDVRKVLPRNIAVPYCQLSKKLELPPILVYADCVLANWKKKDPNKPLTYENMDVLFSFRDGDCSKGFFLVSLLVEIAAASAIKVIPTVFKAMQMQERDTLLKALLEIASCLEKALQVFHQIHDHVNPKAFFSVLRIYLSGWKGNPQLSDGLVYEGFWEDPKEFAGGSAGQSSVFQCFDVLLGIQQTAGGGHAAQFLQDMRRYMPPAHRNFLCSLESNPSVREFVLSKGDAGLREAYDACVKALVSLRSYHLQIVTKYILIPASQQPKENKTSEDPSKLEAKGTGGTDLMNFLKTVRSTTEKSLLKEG

In this test the target is full-length human recombinant IDO1 protein (Homo sapiens (Human), UniProt P14902). The test is described as follows: IDO enzyme activity inhibition testing (Ehrlich method). In kind it is biochemical. The note with it: OD490, 10 concentration points. The protocol:
IDO Enzyme Activity Inhibition Testing
The effects of the compounds of the invention on the activity of indoleamine 2,3-dioxygenase (IDO) were evaluated by the Ehrlich method.
The experimental principle is summarized as follows: IDO1 catalyzes oxidation of tryptophan to form N-formyl kynurenine, N-formyl kynurenine is subsequently hydrolyzed by trichloroacetic acid to form kynurenine, and kynurenine further reacts with the Ehrlich reagent to make the solution yellow. The absorbance at 490 nm (OD490) is directly proportional to the activity of IDO1.
The experimental methods are summarized as follows:
The reaction buffer was 50 mM 2-(N-morpholine)ethanesulfonic acid-hydrate (Sigma, Cat. No. 69889); the full-length human recombinant IDO1 protein was purchased from the Tsinghua Protein Research Technology Center and diluted to a 33.6 ng/μL enzyme solution with the reaction buffer; the substrate solution was prepared with the reaction buffer containing 20 mM vitamin C (Sigma, Cat. No. A5960), 150 μM L-tryptophan (Sigma, Cat. No. T0254), 2250 UI/mL catalase (Sigma, Cat. No. C30), and 10 μM methylene blue (Sigma, Cat. No. 28514); the reaction termination solution was 30% (mass/volume) trichloroacetic acid (Sigma, Cat. No. T9159) aqueous solution; the Ehrlich reagent was 2% p-dimethylaminobenzaldehyde (Sigma, Cat. No. 156477) acetic acid (Macklin, Cat. No. A801295) solution.
A compound was dissolved in DMSO (Sigma, Cat. No. D5879) and diluted to 1 mM, then serially diluted 3-fold with DMSO to a minimum concentration of 50.8 nM, and each concentration was further diluted 25-fold with the reaction buffer. If a compound's IC50 value was very low, the initial concentration of the compound was decreased.
A 10-μL compound solution and a 10-μL enzyme solution were added to a 96-well plate (Sigma, Cat. No. CLS3695), mixed well and incubated at room temperature. After 15 min, a 20-μL substrate solution was added and incubated at 60° C. after mixing for 30 min. The reaction plate was equilibrated to room temperature and 60 μL of the Ehrlich reagent was added. After incubation for 15 min, OD490 of each well was measured.
In this experiment, OD490 without enzyme was referred as OD490100% inhibition, and OD490 with enzyme added but without compound was referred as OD4900% inhibition.
Where Y is the percentage of inhibition, Bottom is the bottom platform value of the S-curve, Top is the top platform value of the S-curve, X is the logarithm of the concentration of the test compound, and slope factor is the slope coefficient of the curve.
For the compound `N#Cc1ccc(NC(=O)Nc2cccc3cncn23)cc1` [Compound 1, 1-(4-cyanophenyl)-3-(imidazo[1,5-a]pyridin-5-yl)urea], the negative-log IC50 (pIC50) was 5.82 to 6.60. With `O=C(Nc1ccc(Cl)cc1)Nc1cccc2cncn12` [Compound 3, 1-(4-chlorophenyl)-3-(imidazo[1,5-a]pyridin-5-yl)urea], the pIC50 was 5.82 to 6.60. Regarding `N#Cc1ccc(NC(=O)Nc2c(F)ccc3cncn23)cc1` [Compound 14, 1-(4-cyanophenyl)-3-(6-fluoroimidazo[1,5-a]pyridin-5-yl)urea], the negative logarithm of the IC50 (pIC50) was greater than 6.60. Regarding `COc1ccc2cncn2c1NC(=O)Nc1ccc(C#N)cc1` [Compound 15, 1-(4-cyanophenyl)-3-(6-methoxyimidazo[1,5-a]pyridin-5-yl)urea], the pIC50 was 5.82 to 6.60. For the compound `CCOc1ccc2cncn2c1NC(=O)Nc1ccc(C#N)cc1` [Compound 16, 1-(4-cyanophenyl)-3-(6-ethoxyimidazo[1,5-a]pyridin-5-yl)urea], the pIC50 was 5.82 to 6.60. On to `N#Cc1ccc(NC(=O)Nc2cc(Cl)cc3cncn23)cc1` [Compound 20, 1-(7-chloroimidazo[1,5-a]pyridin-5-yl)-3-(4-cyanophenyl)urea], for which the pIC50 was greater than 6.60. With `O=C(Nc1ccc(C(=O)O)cc1)Nc1c(-c2ccccc2)ccc2cncn12` [Compound 27, 4-(3-(6-phenylimidazo[1,5-a]pyridin-5-yl)ureido)benzoic acid], the pIC50 was 5.82 to 6.60.

Regarding `CNC(=O)c1ccc(NC(=O)Nc2c(-c3ccccc3)ccc3cncn23)cc1` [Compound 28, N-methyl-4-(3-(6-phenylimidazo[1,5-a]pyridin-5-yl)ureido)benzamide], the pIC50 was 5.82 to 6.60. Regarding `NC(=O)c1ccc(NC(=O)Nc2c(-c3ccccc3)ccc3cncn23)cc1` [Compound 29, 4-(3-(6-phenylimidazo[1,5-a]pyridin-5-yl)ureido)benzamide], the pIC50 is 5.82 to 6.60. As for `O=C(Nc1ccc(C(=O)NCCO)cc1)Nc1c(-c2ccccc2)ccc2cncn12` [Compound 30, N-(2-hydroxyethyl)-4-(3-(6-phenylimidazo[1,5-a]pyridin-5-yl)ureido)benzamide], the pIC50 is 5.82 to 6.60.

As for `N#Cc1ccc(NC(=O)Nc2c(-c3ccccc3)ccc3cncn23)cn1` [Compound 32, 1-(6-cyanopyridin-3-yl)-3-(6-phenylimidazo[1,5-a]pyridin-5-yl)urea], the pIC50 is greater than 6.60. On to `N#Cc1ccc(NC(=O)Nc2c(-c3ccccc3)ccc3cncn23)nc1` [Compound 33, 1-(5-cyanopyridin-2-yl)-3-(6-phenylimidazo[1,5-a]pyridin-5-yl)urea], for which the pIC50 is 5.82 to 6.60. In the case of `COc1cc(NC(=O)Nc2c(-c3ccccc3)ccc3cncn23)ccc1C#N` [Compound 34, 1-(4-cyano-3-methoxyphenyl)-3-(6-phenylimidazo[1,5-a]pyridin-5-yl)urea] it was greater than 6.60; in that of `COc1cc(C#N)ccc1NC(=O)Nc1c(-c2ccccc2)ccc2cncn12` [Compound 35, 1-(4-cyano-2-methoxyphenyl)-3-(6-phenylimidazo[1,5-a]pyridin-5-yl)urea], greater than 6.60; in that of `N#Cc1ccc(NC(=O)Cc2c(-c3ccccc3)ccc3cncn23)c(CO)c1` [Compound 40, N-(4-cyano-2-(hydroxymethyl)phenyl)-2-(6-phenylimidazo[1,5-a]pyridin-5-yl)acetamide], 5.82 to 6.60. `N#Cc1ccc(NC(=O)Cc2cc(Cl)cc3cncn23)cc1` [Compound 41, 2-(7-chloroimidazo[1,5-a]pyridin-5-yl)-N-(4-cyanophenyl)acetamide]: the pIC50 is greater than 6.60. In the case of `N#Cc1ccc(CNCc2c(-c3ccccc3)ccc3cncn23)cc1` [Compound 42, 4-((((6-phenylimidazo[1,5-a]pyridin-5-yl)methyl)amino)methyl)benzonitrile] it was greater than 6.60; in that of `N#Cc1ccc(N(O)C(=O)Cc2c(-c3ccccc3)ccc3cncn23)cc1` [Compound 45, N-(4-cyanophenyl)-N-hydroxy-2-(6-phenylimidazo[1,5-a]pyridin-5-yl)acetamide], greater than 6.60.
